In paper PMC8478281, “Targeting the FtsZ Allosteric Binding Site with a Novel Fluorescence Polarization Screen, Cytological and Structural Approaches for Antibacterial Discovery” (Journal of Medicinal Chemistry, 2021):
Values after ≈ are worked out from the molar mass of the structure shown. Values joined by “and” are separate entries in the source; they are usually repeats but may differ in a detail not shown here. Equal entries are not always repeated.

Columns and labels:
[1] = target: T1, stabilized polymers of FtsZ from B. subtilis (Bacillus subtilis, UniProt P17865); experiment: Competition assay: displacement of probe (R)-5 from stabilized BsFtsZ-GMPCPP polymers; format: binding; settings: for Kd: stabilized polymers of FtsZ from B. subtilis, probe (R)-5, mean ± SEM, read-out: KD
T1 construct: made in house
T1 sequence (P17865 whole entry): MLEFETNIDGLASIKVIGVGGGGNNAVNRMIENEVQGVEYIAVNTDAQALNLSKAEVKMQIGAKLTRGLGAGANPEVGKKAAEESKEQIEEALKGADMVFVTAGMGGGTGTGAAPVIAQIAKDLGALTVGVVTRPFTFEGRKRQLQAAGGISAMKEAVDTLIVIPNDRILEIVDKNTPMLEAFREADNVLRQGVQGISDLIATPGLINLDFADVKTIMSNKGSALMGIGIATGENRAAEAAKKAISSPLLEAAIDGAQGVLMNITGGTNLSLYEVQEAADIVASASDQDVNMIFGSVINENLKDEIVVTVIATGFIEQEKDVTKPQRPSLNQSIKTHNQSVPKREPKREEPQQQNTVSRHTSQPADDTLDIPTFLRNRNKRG
Protocol: (§1) FtsZ (10–15 μM) was assembled in HEPES buffer, 10 mM MgCl2, 50 μM GMPCPP at 25 °C for 10 min, and then 0.15% (v/v) glutaraldehyde[36] (distilled grade for microscopy, TAAB Laboratories, U.K.) was added to the solution that was incubated at 25 °C for 10 min more. (This was the minimal glutaraldehyde concentration determined to stabilize FtsZ polymers specifically binding probe 1.) The remains of the cross-linking agent were quenched by adding 60 mM NaBH4, the sample was incubated on ice for 10 min and degassed.[36] Cross-linked polymers were centrifuged for 10 min at 8200g (5000 rpm) and 4 °C in 15 mL Falcon tubes employing a Rotina 380R (Hettich) centrifuge, the supernatant was removed and the pellet was resuspended in the same volume of HEPES buffer, 10 mM MgCl2, containing 5 μM GMPCPP. Fixed FtsZ polymers were active in binding assays after more than 2 days at 4 °C; they could also be frozen in liquid nitrogen with a small loss of binding capacity. […] Cross-linked polymers of SaFtsZ were similarly prepared.
(§2) Competition assays were performed by measuring, through the decrease in fluorescence anisotropy, the displacement of the fluorescent probes from stabilized FtsZ polymers. Increasing concentrations of competing ligands were added to the mixtures of cross-linked FtsZ polymers (10–15 μM) with probe 1 (3 μM), 7–8 μM FtsZ polymers with probe (S)-2 (3 μM), or 2–3 μM FtsZ polymers with (R)-5 (3 μM). HEPES buffer with 10 mM MgCl2 and 0.1 mM GMPCPP was employed, with a final volume of 0.5 mL, and the anisotropy measured at 25 °C. Under these conditions, the initial fraction of the probe bound was between 0.4 and 0.5. The fraction of the probe bound (Vb) was calculated [drawing 1] where rfree and rmax are the anisotropy values of the free and bound probes, respectively, and R is the ratio between the fluorescence intensities of the bound and free probe (Table S1). The binding data were plotted against the competing ligand concentration and fitted by competition equilibrium of the ligand and the probe for the same binding site. The resulting system of equations[50] was numerically solved using the Equigra v. 5.0 program,[33] which provided the best-fitted value of the competitor binding constant.

B. subtilis [2] = experiment: Minimal division inhibitory concentration and cell division phenotype, B. subtilis; format: cell-based, Bacillus subtilis; settings: for minimal effective concentration: Bacillus subtilis, read-out: MDC B. subtilis
Protocol: (§3) B. subtilis 168 and Staphylococcus spp. were grown in cation adjusted Mueller–Hinton broth (CAMHB; Becton, Dickinson and Company) at 37 °C. B. subtilis SU570 were grown in the same medium at 30 °C. In all cases, the cells were grown to an absorbance of 0.1–0.2 at 600 nm and then incubated either with the compounds or DMSO vehicle. Microscopy assays and cell measurement were performed as previously described.[31] MIC values were determined by a broth macrodilution method.[51] MBC values were determined as the lowest concentration of inhibitor at which there was a 99.9% reduction in colony-forming units/mL compared to the inoculum. To construct a S. aureus strain expressing FtsZ-mCherry, the plasmid pCN-ftsZmch[9] was electroporated into RN4220 and 0.1 μM cadmium chloride (Sigma-Aldrich) was used to induce the expression of the construct under the control of the Pcad promoter.

[3] = target: T2, stabilized FtsZ-GMPCPP polymers (BsFtsZ) (Bacillus subtilis, UniProt P17865); experiment: Competition assay: displacement of probe (S)-2 from stabilized FtsZ-GMPCPP polymers; format: binding; settings: KD, (S)-2 3 μM, 8 μM binding sites
T2 construct: made in house
T2 sequence (P17865 whole entry): as above
Protocol: as §1, §2

S. aureus Mu50 [4] = experiment: Minimal growth inhibitory concentration (broth macrodilution), S. aureus Mu50; format: cell-based, Staphylococcus aureus; settings: Staphylococcus aureus, MU50, read-out: MIC S. aureus Mu50
Protocol: as §3

B. subtilis [5] = experiment: Minimal growth inhibitory concentration (broth macrodilution), B. subtilis; format: cell-based, Bacillus subtilis; settings: Bacillus subtilis, read-out: MIC B. subtilis
Protocol: as §3

S. aureus = experiment: Minimal bactericidal concentration; format: cell-based; settings: Staphylococcus aureus; 99.9% reduction in colony-forming units/mL
Protocol: as §3

[6] = Solubility in HEPES buffer with 2% DMSO, spectrophotometric; format: physicochemical; settings: HEPES buffer containing 2% DMSO, 25 °C, aqueous buffer, kinetic from dmso stock; HEPES buffer pH 6.8 containing 2% DMSO
Protocol: 3.2. Solubility of Compounds. Stock solutions of compounds were prepared in
DMSO (spectroscopic grade, Merck) a nd stored at -20 °C. Compound solubility in 50
mM HEPES-KOH, 50 mM KCl, 1 mM EDTA, pH 6.8 (HEPES buffer) containing 2%
DMSO was determined spectrophotometrically, monitoring the linear correlation
between the absorbance and the compound concentration and the absence of light
scattering. The solutions were optionally centrifuged at 100000 rpm for 20 min at 25 °C
in a TLA100 rotor with a Beckman Optima Max -XP ultracentrifuge.

[7] = target: T3, stabilized SaFtsZ polymers (Staphylococcus aureus, UniProt P0A031); experiment: Competition assay with stabilized SaFtsZ polymers; format: binding; settings: read-out: KD (in parenthesis) (converted)
T3 construct: Full-length S. aureus FtsZ (SaFtsZ); made in house
T3 sequence (P0A031 whole entry): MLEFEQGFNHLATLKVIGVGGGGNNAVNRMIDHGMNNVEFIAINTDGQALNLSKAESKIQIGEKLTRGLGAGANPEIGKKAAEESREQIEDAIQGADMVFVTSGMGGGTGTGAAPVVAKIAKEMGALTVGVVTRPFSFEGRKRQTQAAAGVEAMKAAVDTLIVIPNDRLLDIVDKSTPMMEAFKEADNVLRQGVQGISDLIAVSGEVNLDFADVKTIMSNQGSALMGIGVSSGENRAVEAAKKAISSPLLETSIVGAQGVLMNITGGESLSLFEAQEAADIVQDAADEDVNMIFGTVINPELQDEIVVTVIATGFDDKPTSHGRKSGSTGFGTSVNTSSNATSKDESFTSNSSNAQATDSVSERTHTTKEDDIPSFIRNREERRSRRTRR
Protocol: Full-length S. aureus FtsZ (SaFtsZ) and the truncated protein SaFtsZ(12–315) were purified as described.[34] SaFtsZ was assembled in 50 mM MES, 50 mM KCl, 1 mM EDTA, pH 6.5 plus 10 mM MgCl2, and 0.1 mM GMPCPP.
as §1, §2

S. aureus Mu50 [8] = experiment: Minimal division inhibitory concentration, S. aureus Mu50; format: cell-based; settings: Staphylococcus aureus, MU50, read-out: MDC S. aureus Mu50
Protocol: as §3

B. subtilis 168 [9] = experiment: Cell length of B. subtilis 168 incubated with FtsZ inhibitors; format: cell-based, Bacillus subtilis; set-up: unit of the concentration uncertain; unit not given here; settings: B. subtilis 168, 3 h
Protocol: (§4) Figure 4 Fluorescence anisotropy screen for FtsZ allosteric inhibitors combined with cell-based methods. (A) Screen for FtsZ inhibitors employing the fluorescence anisotropy of probe (S)-2 (3 μM) and stabilized FtsZ-GMPCPP polymers (8 μM binding sites). […] Control values with the corresponding concentrations of dimethyl sulfoxide (DMSO) vehicle (2% void and gray circles; 4%, black circle) are also shown. […] Raw data plots (n ≥ 30) are shown with the mean values marked (statistics in Table S2). The cells were incubated for 3 h with each compound, and cell lengths were measured. (D) Representative phase-contrast images of cells after 3 h with 7 or 9 (0.75 mM each). (E) Cellular localization of FtsZ-GFP in B. subtilis SU570 following growth for 1.5 h in the absence (inset) and presence of 7 (0.2 mM). Bars, 10 μm.
as §3, with “MBC values were determined as the lowest concentration of inhibitor at which there was a 99.9% reduction in colony-forming units/mL compared to the inoculum.” left out, “promoter. […]” for “promoter.”

MTT cytotoxicity assay = format: cell-based; settings: human, IMR90 lung fibroblast cells; IMR90, 100 µM, relative to vehicle
Protocol: The sensitivity of the IMR90 cell line to compounds was tested through a standard 3-(4,5-dimethylthiazol-2-yl)-2,5-diphenyltetrazolium bromide (MTT) assay.[52] The results were reported as the viability percentage of the tested compound relative to vehicle (DMSO), obtained from two or three independent experiments performed in triplicate.

[10] = target: T4, stabilized FtsZ-GMPCPP polymers (Bacillus subtilis, UniProt P17865); experiment: Fluorescence anisotropy screen with probe (S)-2 at two compound concentrations; format: binding; settings: probe (S)-2 3 μM, compound 20 and 200 μM
T4 construct: made in house
T4 sequence (P17865 whole entry): as the sequence (P17865 whole entry) above
Protocol: Once the fluorescence method for ligand binding into the interdomain cleft was set up, we evaluated its potential to screen for FtsZ allosteric inhibitors. Complementary to this screen, cytological profiling tests of the identified binders allow ascertaining their ability to target FtsZ in bacterial cells. Fluorescence anisotropy measurements of probe (S)-2 at two concentrations of each tested compound (20 and 200 μM) were acquired; the solubility range of positively testing compounds was determined spectrophotometrically. […] The promiscuous inhibitors resveratrol,[40] plumbagin,[41] and tiplaxtinin[42] […] It should be noticed that aggregating compounds may sequester the protein or the probe or may scatter highly polarized light, potentially interfering with the fluorescence anisotropy measurements. Colored and fluorescent compounds can also interfere. Compounds initially testing positive in the anisotropy screen should thus be checked for any unexpected changes of the total fluorescence intensity in the same samples, as well as for any artefactual effects on replicates omitting FtsZ.
Figure 4 Fluorescence anisotropy screen for FtsZ allosteric inhibitors combined with cell-based methods. (A) Screen for FtsZ inhibitors employing the fluorescence anisotropy of probe (S)-2 (3 μM) and stabilized FtsZ-GMPCPP polymers (8 μM binding sites). The anisotropy values of the partially bound probe (void black circles), the free probe (void gray circles), and the values with two concentrations of each compound, 20 μM (gray circles) and 200 μM (black circles) are shown. Control values with the corresponding concentrations of dimethyl sulfoxide (DMSO) vehicle (2% void and gray circles; 4%, black circle) are also shown. (B) Chemical structures of synthetic ligands 6–26. (C) Effects of low-affinity inhibitors 6, 7, and 9 on B. subtilis 168 cell division. Raw data plots (n ≥ 30) are shown with the mean values marked (statistics in Table S2). The cells were incubated for 3 h with each compound, and cell lengths were measured. (D) Representative phase-contrast images of cells after 3 h with 7 or 9 (0.75 mM each). (E) Cellular localization of FtsZ-GFP in B. subtilis SU570 following growth for 1.5 h in the absence (inset) and presence of 7 (0.2 mM). Bars, 10 μm.
as §2

B. subtilis 168 [11] = experiment: Cell length of B. subtilis 168 incubated with FtsZ inhibitors; format: cell-based, Bacillus subtilis; set-up: unit not given here; settings: B. subtilis 168, 3 h, mean and standard error, n ≥ 30
Protocol: as §4
as §3, with “MBC values were determined as the lowest concentration of inhibitor at which there was a 99.9% reduction in colony-forming units/mL compared to the inoculum.” left out, “promoter. […]” for “promoter.”

| Compound | Kd [1] | minimal effective concentration (B. subtilis [2]) | Kd [3] | MIC (S. aureus Mu50 [4]) | MIC (B. subtilis [5]) | MBC (S. aureus) | solubility [6] | Kd [7] | minimal effective concentration (S. aureus Mu50 [8]) | length (B. subtilis 168 [9]; 2.5 (unit uncertain) as printed) | length (B. subtilis 168 [9]; 5 (unit uncertain) as printed) | viability at 100 µM (MTT cytotoxicity assay) | length (B. subtilis 168 [9]; 10 (unit uncertain) as printed) | fold weaker affinity and MDC than the (R)-enantiomer [1] | result of the anisotropy screen, in words [10] | length (B. subtilis 168 [11]; 0.5 mM) | length (B. subtilis 168 [11]; 0.75 mM) | fold lower concentration inhibiting B. subtilis division than 3-methoxybenzamide (B. subtilis [2]; 3-methoxybenzamide value from ref 44) |
| --- | --- | --- | --- | --- | --- | --- | --- | --- | --- | --- | --- | --- | --- | --- | --- | --- | --- | --- |
| NC(=O)c1c(F)ccc(OCc2nc3cc(Cl)cnc3s2)c1F [PC190723, reference compound] | < 0.1 µM | 2.5 µM | < 0.1 µM | 5 µM (≈ 1.78 µg/mL) | 5 µM (≈ 1.78 µg/mL) | 5 µM (≈ 1.78 µg/mL) | 10 µM (≈ 3.56 µg/mL) | < 0.1 µM | 1 µM | – | – | – | – | – | – | – | – | – |
| NC(=O)c1c(F)ccc(OCCNc2cccc(C(F)(F)F)c2)c1F [Compound 25, 2,6-Difluoro-3-(2-{[3-(trifluoromethyl)phenyl]amino}ethoxy)benzamide] | 1.9 ± 0.2 µM | 5 µM | – | 100 µM (≈ 36 µg/mL) | 10 µM (≈ 3.6 µg/mL) | 100 µM (≈ 36 µg/mL) | 100 µM (≈ 36 µg/mL) | 0.3 µM | 50 µM | 4.8 ± 0.1 | 27.4 ±0.9 | 88 ± 1% | – | – | – | – | – | – |
| CCC[C@@H](COc1ccc(F)c(C(N)=O)c1F)Nc1cccc(C(F)(F)F)c1 [(S)-26] | 3.8 ± 0.2 µM | > 10 µM | – | 100 µM (≈ 40.2 µg/mL) | 50 µM (≈ 20.1 µg/mL) | – | 100 µM (≈ 40.2 µg/mL) | 7 µM | 100 µM | – | – | – | 4.9 ± 0.2 | 10–20 fold | – | – | – | – |
| NC(=O)c1c(F)ccc(OCc2cccc(Cl)c2)c1F [Compound 18, 3-[(3-Chlorobenzyl)oxy]-2,6-difluorobenzamide] | 1.3 ± 0.1 µM | 10 µM | – | 100 µM (≈ 29.8 µg/mL) | 25 µM (≈ 7.44 µg/mL) | 100 µM (≈ 29.8 µg/mL) | ≥ 100 µM | – | 50 µM | – | – | 90 ± 7% | – | – | – | – | – | – |
| NC(=O)c1cccc(NCc2cccc(Cl)c2)c1 [Compound 6] | – | – | 233 µM and ~200 µM | – | – | – | ≥ 100 µM | – | – | – | – | – | – | – | weak binders | 5.9 ± 0.3 | 8.0 ± 0.2 | – |
| CN(Cc1cccc(Cl)c1)c1cccc(C(N)=O)c1 [Compound 7] | – | – | 159 µM and ~200 µM | – | – | – | ≥ 100 µM | – | – | – | – | – | – | – | weak binders | 8.5 ± 0.3 | 24.7 ±0.8 | ~20 fold |
